In patent US11814680B2, “Biomarkers for detecting senescent cells” (Universität für Bodenkultur Wien, priority 2017, dated 2023):
“Also recorded” adds a separate entry of the source. Marks after values point to notes of the source that are not given here.

What was measured:
[1] = system: p16-3MR mice; assay: Next generation sequencing of circulating miRNAs in serum after induction (dox) and removal (GCV) of senescent cells; format: in vivo, mouse; conditions: for log fold change / avg TPM dox: serum miRNA; for log fold change: dox vs pbs, p16-3MR mice; for avg TPM dox: dox-treated p16-3MR mice
Method: p16-3MR (Demaria et al, 2014, Developmental Cell 31:722-733) mice were bred in house and maintained in the AALAC-accredited Buck Institute for Research on Aging (Novato, Calif.) animal facility. 10 to 12-week-old p16-3MR male mice were used for experiments. Mice were divided in 4 groups and each group consisted of 3 animals. In group A, control mice were injected with PBS. In group B, mice were treated with Ganciclovir (GCV) (Sigma-Aldrich) dissolved in PBS for 5 consecutive days. In group C, mice were treated with one dose of Doxorubicine hydrochloride (Sigma-Aldrich) dissolved in PBS. In group D, mice were first treated with Doxorubicine and then treated 10 days later with GCV. Mice were intraperitoneally injected with one dose of 10 mg/kg of Doxorubicine hydrochloride, and GCV was administered daily by intraperitoneal injections for 5 consecutive days at concentration of 25 mg/kg in PBS. 4 days after the last GCV dose, animals were euthanized with CO2 and blood was withdrawn immediately. Blood was then incubated for 30 min at room temperature and centrifuged at 3400×g for 10 min. Serum was carefully collected in a sterile tube without disturbing the cell pellet and stored at −80° C. for further experiments.
Total RNA extraction was performed from 200 μl of serum using the Qiagen miRNeasy™ extraction kit (Qiagen, Germany). RNA yield was quality checked for homogenous extraction efficiency and hemolysis on the basis qPCR amplification of spiked-in as well as hemolysis-responsive RNAs (Blondal et al). In total 2 μl total RNA were used for library preparation using the CleanTag library preparation protocol (Trilink Biotechnologies, USA), which uses chemically modified adapters to prevent adapter self-ligation. Library quality and yield was controlled using Bioanalyzer DNA-1000 chips. Due to the high purity, libraries were not purified prior to sequencing on an ILLUMINA™ NextSeq 500 sequencing system with 50 bp single-end reads.
Next-generation sequencing was performed at Exiqon (Denmark). Raw reads were quality filtered for a Q-score of 30 or higher. Adapter sequences were trimmed and the remaining reads were mapped against the mouse genome, miRBase, non-coding RNA databases and classified as either microRNAs, small RNAs, genome mapping RNAs or outmapped RNA sequences. Read counts were added for all microRNA isoforms (isomiRs) and normalized by dividing the microRNA read count by the total number of mapped reads and multiplying by 1 million (Tags Per Million). Tags per millions were used for data mining (PCA and hierarchical clustering) using the web-tool clustvis (Metsalu and Vilo 2015).
For differential expression analysis, the EdgeR statistical software package was used. For normalization, the trimmed mean of M-values method was used based on log-fold and absolute gene wise changes in expression levels between samples (TMM normalization). […] Additionally, the normalization step offsets under-sampling effects (due to highly expressed microRNAs dominating the read set) by identifying scaling factors that minimize log-fold changes between samples across the majority of microRNAs.
For exploratory data analysis we applied principal component analysis (PCA) to the dataset of 50 most variable microRNAs according to the coefficient of variation. The PCA plot clearly indicates an effect of […] (dox) treatment on circulating microRNA levels in p16-3MR mice compared to the PBS treated control animals (FIG. 2). […] Analysis of differentially circulating miRNAs was focused on changes between dox treated versus control (PBS) to identify those miRNAs that are modulated by induction of senescence, as well as dox-GCV vs dox, in order to identify miRNAs that change after removal of senescent cells. A p-value threshold of <0.05 without correction for multiple testing was used. […] GCV-treated animals are supposed to have a reduced number of senescent cells compared to PBS due to forced apoptosis. […]

[2] = system: p16-3MR mice; assay: Pearson correlation of serum miRNA levels to miR-34a-5p and miR-27a-3p; set-up: species or system mouse; conditions: for Pearson Correlcation coefficient miR44a-5p: correlation of serum level to miR44a-5p (so in the source); for Pearson Correlcation coefficient miR-27a-3p: correlation of serum level to miR-27a-3p
Description: In order to extend these finding to potential additional miRNAs, we performed Pearson correlation to miR-34a-5p and miR-27a-3p, resulting in additional potential biomarkers (Table 18).

[3] = system: p16-3MR mice; assay: RT-qPCR verification of serum circulating microRNA changes, one-way ANOVA; format: in vivo, mouse; conditions: for change of serum level following senolytic treatment (DOX/GCV compared to DOX): p<0.05, in words; for One-way ANOVA Senolytic Treatment (DOX/GCV) / One-way ANOVA Senescence (DOX vs PBS): serum; for One-way ANOVA Senolytic Treatment (DOX/GCV): DOX/GCV compared to DOX; for One-way ANOVA Senescence (DOX vs PBS): n=8 per group, male and female mice
Method: p16-3MR (Demaria et al, 2014, Developmental Cell 31:722-733) mice were bred in house and maintained in the AALAC-accredited Buck Institute for Research on Aging (Novato, Calif.) animal facility. 10 to 12-week-old p16-3MR […] mice were used for experiments. Mice were divided in 4 groups and each group consisted of 8 animals, 5 female, and 3 male, respectively. In group A, control mice were injected with PBS. In group B, mice were treated with Ganciclovir (GCV) (Sigma-Aldrich) dissolved in PBS for 5 consecutive days. In group C, mice were treated with one dose of Doxorubicine hydrochloride (Sigma-Aldrich) dissolved in PBS. In group D, mice were first treated with Doxorubicine and then treated 10 days later with GCV. Mice were intraperitoneally injected with one dose of 10 mg/kg of Doxorubicine hydrochloride, and GCV was administered daily by intraperitoneal injections for 5 consecutive days at concentration of 25 mg/kg in PBS. 4 days after the last GCV dose, animals were euthanized with CO2 and blood was withdrawn immediately. Blood was then incubated for 30 min at room temperature and centrifuged at 3400×g for 10 min. Serum was carefully collected in a sterile tube without disturbing the cell pellet and stored at −80° C. for further experiments.
Total RNA extraction was performed from 200 μl of serum using the Qiagen miRNeasy extraction kit (Qiagen, Germany). RNA yield was quality checked for homogenous extraction efficiency and hemolysis on the basis qPCR amplification of spiked-in as well as hemolysis-responsive RNAs (Blondal et al). In total 2 μl total RNA were used for reverse transcription using the Exiqon Universal RT kit II (Exiqon, Denmark). The obtained cDNA samples were pre-diluted 1:40 and subsequently mixed with SYBR Green® Mix (Exiqon, Denmark) to achieve a 1:100 dilution. The mix was distributed to primer-coated 384-well plates containing dried primer pairs for 96 selected microRNA or quality control assays. QPCR amplification was performed on a Roche LightCycler 480 II, using the manufacturer's recommendation for annealing, extension and denaturation.
Raw Cq-values were computed using the 2nd derivative method. Melting curves were checked for peaks to ensure specificity of the amplification reactions. Cq-values were subsequently normalized using Spike-In controls as references, to reduce technical noise in the data.
(§1) Statistical analysis was performed using Medcalc (version 18.2.1). Normal distribution was assessed using D'Agostino-Pearson test, where normality was accepted at p>0.05. One-way ANOVA together together with Student-Newman-Keuls test for all pairwise comparisons (post-hoc tests) was used to identify significant changes between groups (p<0.05). To assess the discriminatory power of individual microRNAs, receiver operating characteristic (ROC) analysis was applied. ROC curves were plotted using sensitivity (y-axis) and 1-specificity (x-axis) and the area under the ROC curve (AUC) was calculated. MicroRNAs with AUC-values of >0.7 were considered as good discriminators/biomarkers. MicroRNAs with AUC-values >0.8 were considered very good discriminators/biomarkers.

[4] = system: p16-3MR mice; assay: ROC analysis of discriminatory power of circulating microRNAs; format: in vivo, mouse; conditions: serum, RT-qPCR, symbol after the number = significance; for ROC Analysis AUC Senescence: DOX vs PBS; for ROC Analysis AUC Senolytic Treatment: DOX/GCV vs DOX
Method: as §1
In order to assess the diagnostic power of circulating microRNAs for the exposure with senescence inducing substances (DOX) as well as the efficacy of senolytic treatment, ROC analysis was performed and the area-under-the-curve (AUC) was calculated. […] Table 23 below summarizes AUC values as well as 95% confidence intervals for 24 selected circulating microRNAs.

Compound	Pearson Correlcation coefficient miR44a-5p [2]	Pearson Correlcation coefficient miR-27a-3p [2]	log fold change ([1]; NGS)	avg TPM dox ([1]; NGS)	further results
COc1cccc2c1C(=O)c1c(O)c3c(c(O)c1C2=O)C[C@@](O)(C(=O)CO)C[C@@H]3O[C@H]1C[C@H](N)[C@H](O)[C@H](C)O1.Cl [Doxorubicine hydrochloride, reference compound]	–	–	–	–	circulating miRNA levels upon induction of senescence ([1]; PCA of 50 most variable microRNAs, compared to PBS, in words): significantly changed
Nc1nc(O)c2ncn(COC(CO)CO)c2n1 [ganciclovir, Ganciclovir, reference compound]	–	–	–	–	serum miRNAs compared to PBS treated animals ([1]; GCV 25 mg/kg i.p. for 5 days, in words): consistent decrease
miR-24-3p: circulating microRNA biomarker, SEQ ID No. 21 (UGGCUCAGUUCAGCAGGAACAG; expressed or natural sequence; listed as Homo sapiens)	0.61	0.89	–	–	change of serum level following senolytic treatment (DOX/GCV compared to DOX) [3]: significantly changed; One-way ANOVA Senolytic Treatment (DOX/GCV) [3]: * (significant p < 0.05); One-way ANOVA Senescence (DOX vs PBS) [3]: ○; ROC Analysis AUC Senescence [4]: 0.609°; ROC Analysis AUC Senolytic Treatment [4]: 0.789*
miR-27a-3p: circulating microRNA biomarker, SEQ ID No. 5 (UUCACAGUGGCUAAGUUCCGC; expressed or natural sequence; listed as Homo sapiens)	–	–	1.08	16.50 TPM	serum level after rescue with dox+GCV (removal of senescent cells) ([1]; NGS, in words): decreased; serum level in dox-treated animals compared to PBS controls ([1]; NGS, in words): higher; also recorded: increased; change of serum level following senolytic treatment (DOX/GCV compared to DOX) [3]: significantly changed; One-way ANOVA Senolytic Treatment (DOX/GCV) [3]: * (significant p < 0.05); One-way ANOVA Senescence (DOX vs PBS) [3]: ○; ROC Analysis AUC Senescence [4]: 0.664°; ROC Analysis AUC Senolytic Treatment [4]: 0.719+
miR-151-5p: circulating microRNA biomarker, SEQ ID No. 17 (UCGAGGAGCUCACAGUCUAGU; expressed or natural sequence; listed as Homo sapiens)	0.73	0.37	–	–	regulation in serum after exposure to DOX compared to PBS ([3]; independent of gender, in words): significantly (up- or down-regulated); One-way ANOVA Senolytic Treatment (DOX/GCV) [3]: ○; One-way ANOVA Senescence (DOX vs PBS) [3]: * (significant p < 0.05); ROC Analysis AUC Senescence [4]: 0.828*; ROC Analysis AUC Senolytic Treatment [4]: 0.609°
mmu-let-7f-5p: circulating microRNA, SEQ ID No. 2 (UGAGGUAGUAGAUUGUAUAGUU; expressed or natural sequence; listed as Homo sapiens)	–	–	−1.29	178.25 TPM	–
mmu-miR-143-3p: circulating microRNA, SEQ ID No. 4 (UGAGAUGAAGCACUGUAGCUC; expressed or natural sequence; listed as Homo sapiens)	–	–	−1.57	393.00 TPM	–
mmu-miR-144-5p: circulating microRNA, SEQ ID No. 7 (GGAUAUCAUCAUAUACUGUAAG; expressed or natural sequence; listed as Homo sapiens)	–	–	−1.06	34.50 TPM	–
mmu-miR-339-5p: circulating microRNA, SEQ ID No. 10 (UCCCUGUCCUCCAGGAGCUCACG; expressed or natural sequence; listed as Homo sapiens)	0.64	0.87	–	–	–
mmu-miR-652-3p: circulating microRNA, SEQ ID No. 13 (AAUGGCGCCACUAGGGUUGUG; expressed or natural sequence; listed as Homo sapiens)	0.77	0.66	–	–	–
mmu-miR-3058-3p: circulating microRNA, SEQ ID No. 8 (UUCCUGUCAGCCGUGGGUGCC; expressed or natural sequence; listed as Homo sapiens)	0.80	0.54	–	–	–
mmu-miR-6395: circulating microRNA, SEQ ID No. 12 (CUGGCCCUCUCUGCCCUGUUUA; expressed or natural sequence; listed as Homo sapiens)	0.61	0.81	–	–	–
